According to article PMC8766875 (Nature biotechnology, 2021):

What was measured:
swine = experiment: Pharmacodynamic response in dosed swine; format: in vivo
[1] = set-up: species or system swine (female Yorkshire); conditions: in vivo
[2] = cited from earlier work
[3] = In vivo pharmacokinetics of insulin and GLP-1 analog in swine; conditions: removed from dataset
[4] = 0.24 mg, injection (intramuscular) and L-SOMA groups

For `CNC[C@H](O)c1ccc(O)c(O)c1` [epinephrine], the blood glucose response (swine; [4]) was “rapid rise”, the heart rate response (swine; [4]) was “rapid rise in heart rate” and the “systemic uptake after endoscopic gavage (negative control)” value [1] was “negligible uptake”.
In the case of GLP-1, the “ability to traverse the stomach lining for systemic uptake” value ([2]; in vivo) is given as “severely limited ability” and the “bioavailability when using a permeation enhancer” value ([2]; not told) is given as “approximately 1%”.
In the case of adalimumab, the “systemic uptake after endoscopic gavage (negative control)” value [1] was “negligible uptake”.
With recombinant human insulin the plasma glucose response (swine; 4 IU, injection and L-SOMA groups) was “immediate hypoglycemic onset”, the “plasma insulin level at t=0” value ([3]; one L-SOMA-dosed swine, possible sample contamination) was 41.6 pM and the peak plasma level ([3]; same single L-SOMA-dosed swine, at 45 minutes) was 136 pM.
For semaglutide, the oral bioavailability ([2]; in vivo, po) is given as “approximately 1%”.
